The record followed here is patent US4939175A, “Use of N,N-dimethyl-1-[1-(4-chlorophenyl)cyclobutyl]-3-methylbutylamine” (priority 1988, dated 1990).

The term IC50 denotes the midpoint of a concentration-inhibition curve.

In data set [1] the test system is depletion of dopamine induced by MPTP in mice whole brain. As to the kind of experiment: animal or person. The data set is classed as in vivo, SlC: ddy strain male mice. As to conditions: Mus musculus, po, 168 h, read-out: Percentage of the amount of dopamine in the treated group against the amount of dopamine in the non-treated group.
In data set [2] the test system is re-uptake of ^3 H-dopamine. As to the kind of experiment: Re-uptake of 3H-dopamine in vitro (synaptosomes, P2 fraction of whole brain). The data set is classed as biochemical, Std: Wistar strain male rat. Conditions: rat brain synaptosomes, 37° C., 20 minutes. As for the experimental part: Effect of the test samples on the re-uptake of ^3 H-dopamine in vitro
P2 fraction was prepared from the whole brain of Std: Wistar strain male rat. […] The obtained mixture was incubated at 37° C. for 20 minutes and then subjected to the suction filtration with Whatman GF/B filter paper.
The obtained filter paper was put in a vial containing 10 ml of toluene type scintillator and its radioactivity was measured by means of liquid scintillation counter. The amount of the specific re-uptake of ^3 H-dopamine was obtained by subtracting the amount of re-uptake at 0° C. as blank.

The subject of data set [3] is depletion of serotonin induced by p-chloroamphetamine. As to the kind of experiment: Depletion of serotonin (5-HT) induced by p-chloroamphetamine (whole brain). The data set is classed as in vivo, SlC:ddy mice. As to conditions: p-chloroamphetamine 10 mg/kg i.p., control 48 ± 6, **p < 0.01. As for the experimental part:
Effect of the test samples on the depletion of serotonin (hereinafter referred to as "5-HT") induced by p-chloroamphetamine
The test sample was administered orally to SlC:ddy made mice and after 60 minutes, p-chloroamphetamine (10 mg/kg) was injected intraperitoneally.
At 6 hours later, the mice were decapitated. The whole brain was rapidly removed and homogenized in 0.06M perchloric acid with N-methylserotonin (10 μg/ml) as an internal standard. The homogenate was centrifuged and then the amount of 5-HT in the supernatant was determined by high performance liquid chromatography with electrochemical detection.
Amitriptyline was used as the reference drug and distilled water was used as control sample.

For data set [4], the system named is inhibition of conditioned avoidance response induced by reserpine in rats. The data set can be described thus: Inhibition of conditioned avoidance response induced by reserpine in rats. The data set is classed as in vivo, Std-Wistar male rats. As to conditions: for Conditioned avoidance response 1 hour after administration of the test sample: reserpine 1 mg/kg, control 2; for Conditioned avoidance response before administration of reserpine: baseline before test sample; for Conditioned avoidance response 18 to 20 hours after administration of reserpine: reserpine 1 mg/kg i.p., before test sample. As for the experimental part:
Effect of the test samples on the inhibition of conditioned avoidance response induced by reserpine in rats
Std-Wistar male rats (8 to 9 week age) weighing of 270 to 300 g were fed under the conditions of 23±2° C., 60±10% R.H. and artificial lighting from 7 AM to 7 PM for a week, and then subjected to the test.
The test was carried out by using a shuttle box. The shuttle box used herein was a rectangular box, which was equipped with a buzzer for conditioned stimulus at the upper part and grids of 2 mm in diameter, for non-conditioned stimulus, at intervals of 1 cm on the floor, and divided into two equal sized compartments by a hurdle of 5 cm in height.
The schedule for inducing the conditioned avoidance response was controlled by a computer, and all the observed results of avoidance or escape response were recorded automatically.
The avoidance condition was carried out as follows:
After the conditioned stimulus of the buzzer with sound signal for 5 seconds, the non-conditioned stimulus of the foot shock was given for 5 seconds to rats. Each stimulus was stopped immediately, if the rat jumped over the hurdle to the other compartment during the conditioned or non-conditioned stimulus.
The above-mentioned rats were put on the trials for 25 times. Then the rats were given reserpine (1 mg/kg, intraperitoneally). The rats were tested for 15 times at the time of 18 to 20 hours after the reserpine administration, and then they were divided into several groups ([…]).
The test sample was dissolved in distilled water and administered orally to each group at 24 to 26 hours after the reserpine administration. For reference, distilled water as control sample, and amitriptyline and amantadine as test drugs were used.
At one hour after the test sample administration, the rats were put on the trials for 25 times and the conditioned avoidance responce was compared between the control group (distilled water administration), the test compound-administered group and the test drug-administered groups.

Data set [5] is described as follows: Acute toxicity, oral, mice. More on the design: species or system SlC:ddy male mice. Conditions: mouse, in vivo, read-out: Number of dead mice per 10 mice. As for the experimental part: SlC:ddy male mice (10 heads/group) were used.
After the oral administration of the test smaple, desipramine was used as the test drug, to the mice, the number of the dead mice was counted at 0.5, 1, 2, 4, 18 and 24 hours respectively after the oral administration.

Data set [6] has as its system depletion of norepinephrine induced by 6-hydroxydopamine in rat heart. The data set can be described thus: Depletion of norepinephrine induced by 6-hydroxydopamine in rat heart. The class given is in vivo, Std: Wistar male rats. Conditions: 6-hydroxydopamine 20 mg/kg i.p., control 20 ± 4, non-treatment 425 ± 49, **p < 0.01. As for the experimental part:
Effect of the test samples on the depletion of norepinephrine induced by 6-hydroxydopamine in rat heart.
The test sample was administered orally to Std: Wistar male rats and after 30 minutes, 6-hydroxydopamine (20 mg/kg) was injected intraperitoneally.
At 16 hours after injection of 6-hydroxydopamine, the rats were killed. The whole heart was rapidly removed and homogenized in 0.05M perchloric acid with isoproterenol (10 mg/ml) as an internal standard. The homogenate was centrifuged and then the amount of norepinephrine in the supernatant was determined by means of high performance liquid chromatography with electrochemical detection.
Desipramine was used as the reference drug and distilled water was used as control sample.

The subject of data set [7] is circling behavior in rats with unilateral substantia nigra lesions. As to the kind of experiment: Circling behavior in rats with unilateral substantia nigra lesions. As to conditions: 50 mg/kg oral, 2 hours after; control 0.1 ± 0.4. The data set is classed as in vivo, Std: Wistar male rats. As for the experimental part:
Effect of the test samples on circling behavior in rats with unilateral substantia nigra lesions
Std: Wistar male rats (8 heads/group) were used. The rat with unilateral substantia nigra lesions was made by injecting 8 μg/4 μl of 6-hydroxydopamine to the right side of substantia nigra.
The test sample was administered orally to the rat. At 2 hours later, the number of circling behavior per 10 minutes was counted.
Amantadine was used as the reference drug and distilled water was used as control sample.

[8] abbreviates: Experiment I, 10 mg/kg oral, MPTP 50 mg/kg s.c., control 71 ± 11, *P < 0.05, **P < 0.01.
[9] abbreviates: Experiment I, 30 mg/kg oral, MPTP 50 mg/kg s.c., control 71 ± 11, *P < 0.05, **P < 0.01.

Molecules are shown by their SMILES. Where two headings read alike, the source gives them in different places.

For the molecule `CN(C)CCCN1c2ccccc2CCc2ccc(Cl)cc21` [Clomipramine, clomipramine], in data set [1], the response vs control in vivo at 10 mg/kg stood at 74 ± 13% and the response vs control in vivo at 30 mg/kg worked out at 74 ± 14%.

Take `CNCCCC12CCC(c3ccccc31)c1ccccc12` [Maprotiline, maprotiline]: in data set [1], the response vs control in vivo at 10 mg/kg turned out to be 65 ± 17% and the response vs control in vivo at 30 mg/kg came to 74 ± 17%.

In the case of `CN(C)CCC=C1c2ccccc2CCc2ccccc21` [Amitriptyline, amitriptyline], the IC50 was 7.7 µM in data set [2] (Experiment I) and 8.2 µM in data set [2] (Experiment II). For the same molecule, the response vs control in vivo at 10 mg/kg in data set [1] (setting [8]) was 81 ± 15%. In addition, in data set [1] (setting [9]), the response vs control in vivo at 30 mg/kg was 77 ± 15%. For the same molecule, the “Percentages of the amount of 5-HT in the treated group against the amount of 5-HT in the non-treated group” value was determined as 50 ± 4% in data set [3] (10 mg/kg oral), 56 ± 10% in data set [3] (30 mg/kg oral) and 92 ± 8% in data set [3] (90 mg/kg oral). Besides, the results for the “Conditioned avoidance response 1 hour after administration of the test sample” value in data set [4] (10 mg/kg oral) and in data set [4] (40 mg/kg oral) were 1% and 0%, respectively. Further, the “Conditioned avoidance response before administration of reserpine” value in data set [4] (10 mg/kg group) was 93%; in data set [4] (40 mg/kg group), 94%. For the same molecule, the “Conditioned avoidance response 18 to 20 hours after administration of reserpine” value was 1% in data set [4] (10 mg/kg group) and 7% in data set [4] (40 mg/kg group).

As for `CNCCCN1c2ccccc2CCc2ccccc21` [Desipramine, desipramine], the response vs control in vivo at 10 mg/kg in data set [1] (setting [8]) was determined as 74 ± 15%. For the same molecule, the response vs control in vivo at 30 mg/kg in data set [1] (setting [9]) is 79 ± 18%. In data set [5] (200 mg/kg oral), the mortality at 0.5 h turned out to be 0%, the mortality at 1 h turned out to be 0%, the mortality at 2 h came to 0% and the mortality at 4 h amounted to 0%. In data set [5] (200 mg/kg oral), the mortality at 18 h is 0% and the mortality at 24 h was found to be 0%. Also, in data set [5] (800 mg/kg oral), the mortality at 0.5 h was determined as 100%, the mortality at 1 h was found to be 100%, the mortality at 2 h was determined as 100% and the mortality at 4 h was found to be 100%. In data set [5] (800 mg/kg oral), the mortality at 18 h amounted to 100% and the mortality at 24 h was found to be 100%. Further, the “Amount of Norepinephrine” value in data set [6] (0.625 mg/kg oral) was 35 ± 4 ng/g. Besides, the “Amount of Norepinephrine” value in data set [6] (1.25 mg/kg oral) worked out at 74 ± 26 ng/g. In data set [6] (2.5 mg/kg oral), the “Amount of Norepinephrine” value amounted to 211 ± 79 ng/g.

Regarding `CN[C@@H](C)Cc1ccccc1` [Methamphetamine, methamphetamine], the response vs control in vivo at 3 mg/kg in data set [1] (Experiment I, 3 mg/kg oral, MPTP 50 mg/kg s.c., control 71 ± 11, *P < 0.05, **P < 0.01) amounted to 97 ± 14%; in data set [1] (Experiment II, 3 mg/kg oral, MPTP 50 mg/kg s.c., control 88 ± 20, *P < 0.05), 102 ± 21%; in data set [1], 91 ± 20%.

As to `CN1CCN2c3ccccc3Cc3ccccc3C2C1` (stereo not drawn) [Mianserin, mianserin], in data set [1], the response vs control in vivo at 10 mg/kg is 72 ± 16% and the response vs control in vivo at 30 mg/kg was found to be 69 ± 8%.

As for `CN(C)CC/C=C1\c2ccccc2CSc2ccccc21` [Dosulepin, dosulepin], in data set [1] (setting [8]), the response vs control in vivo at 10 mg/kg worked out at 70 ± 13%. Also, the response vs control in vivo at 30 mg/kg in data set [1] (setting [9]) is 77 ± 12%.

In turn, `CN(C)CCCN1c2ccccc2CCc2ccccc21` [Imipramine, imipramine] showed an IC50 in data set [2] (Experiment II) of 15 µM.

As for `NC12CC3CC(CC(C3)C1)C2` [Amantadine, amantadine], the response vs control in vivo at 10 mg/kg in data set [1] (Experiment II, 10 mg/kg oral, MPTP 50 mg/kg s.c., control 88 ± 20, *P < 0.05) amounted to 77 ± 21%. Further, the response vs control in vivo at 30 mg/kg in data set [1] (Experiment II, 30 mg/kg oral, MPTP 50 mg/kg s.c., control 88 ± 20, *P < 0.05) worked out at 64 ± 16%. Moreover, the results for the “Conditioned avoidance response 1 hour after administration of the test sample” value in data set [4] (10 mg/kg oral) and in data set [4] (50 mg/kg oral) were 2% and 38%, respectively. Moreover, the “Conditioned avoidance response before administration of reserpine” value amounted to 94% in data set [4] (10 mg/kg group) and 95% in data set [4] (50 mg/kg group). Besides, the “Conditioned avoidance response 18 to 20 hours after administration of reserpine” value in data set [4] (10 mg/kg group) and in data set [4] (50 mg/kg group) was 3% each time. Moreover, the “Number of circling behavior per 10 min.” value in data set [7] was 0.4 ± 0.7 per 10 min.
